We go through 30 molecules from PMC8199001, “Design, Synthesis, and Biological Evaluation of Novel 6H-Benzo[c]chromen-6-one Derivatives as Potential Phosphodiesterase II Inhibitors” (International Journal of Molecular Sciences, 2021).

The term IC50 denotes the point on the concentration scale where inhibition reaches its midpoint. A low value points to inhibition by little substance. By melting point is commonly meant the temperature of the solid-liquid transition.

For one series, the target named is PDE2 (Homo sapiens, UniProt O00408). Description: In vitro PDE2 enzymatic inhibition assay (Bio-cAMP substrate, AlphaScreen detection).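 On all read-outs here: enzyme reaction run 0.5 h, then anti-cAMP acceptor and streptavidin donor beads added for 1 h in the dark before plate reading, compounds serially diluted from DMSO stock.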 Format: biochemical. Particulars: for IC50: in vitro, Bio-cAMP as substrate, mean of at least three experiments; for PDE2 inhibitory activity (result in words): enzyme level. For orientation: Bead proximity is the source of the signal in Alpha formats.
PDE2, sequence (O00408 whole entry): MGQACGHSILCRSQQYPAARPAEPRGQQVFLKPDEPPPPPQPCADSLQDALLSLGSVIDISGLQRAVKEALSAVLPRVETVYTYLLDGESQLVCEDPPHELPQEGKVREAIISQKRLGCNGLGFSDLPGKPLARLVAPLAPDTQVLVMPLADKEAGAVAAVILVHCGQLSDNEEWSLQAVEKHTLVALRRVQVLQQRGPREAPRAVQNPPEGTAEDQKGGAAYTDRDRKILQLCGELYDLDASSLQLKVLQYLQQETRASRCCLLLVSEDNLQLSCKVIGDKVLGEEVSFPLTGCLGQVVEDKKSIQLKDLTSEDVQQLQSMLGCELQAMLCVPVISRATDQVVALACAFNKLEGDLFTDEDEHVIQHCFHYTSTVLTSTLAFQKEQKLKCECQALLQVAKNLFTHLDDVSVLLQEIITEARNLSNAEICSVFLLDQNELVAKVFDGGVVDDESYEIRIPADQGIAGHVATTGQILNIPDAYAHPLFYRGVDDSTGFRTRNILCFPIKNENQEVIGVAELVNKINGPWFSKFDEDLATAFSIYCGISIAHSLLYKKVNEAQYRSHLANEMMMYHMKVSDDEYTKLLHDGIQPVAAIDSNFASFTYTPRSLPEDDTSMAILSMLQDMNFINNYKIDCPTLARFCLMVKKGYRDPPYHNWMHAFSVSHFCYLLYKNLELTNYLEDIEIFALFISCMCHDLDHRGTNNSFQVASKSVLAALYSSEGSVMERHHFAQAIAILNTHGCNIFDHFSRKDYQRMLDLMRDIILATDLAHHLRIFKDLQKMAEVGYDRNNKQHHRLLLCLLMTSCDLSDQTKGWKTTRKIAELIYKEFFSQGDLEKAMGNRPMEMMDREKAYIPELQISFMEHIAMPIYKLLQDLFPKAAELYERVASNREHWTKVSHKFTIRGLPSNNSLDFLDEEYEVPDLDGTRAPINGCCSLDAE

Method for PDE2: Preparation of 1*Rection Buffer: we took 1 mL 10*Rection Buffer, added 9 mL ultra-pure water to swirl and mix well, and put it on ice; preparation of PDE2 solution: 210 μL of 1*Rection Buffer were added into a centrifuge tube, then 30 μL PDE2 were added, mixed well, equal to 8-times dilution, and placed on ice; preparation of compound solution with gradient concentration: DMSO was used as the solvent to prepare 10 mM compound solution, and then diluted with 1*Rection Buffer.
We took 2 μL of the diluted compound solution of each concentration into the microplate, added 4 μL PDE2 solution, numbered them A1–A9, added 2 μL 1*Rection Buffer and 4 μL PDE2 into A10, added 2 μL compound solution and 4 μL 1*Rection Buffer to A11, added 6 μL 1*Rection Buffer to A13, and ensured the three groups are parallel to each other. […] The reaction time was 0.5 h in the microporous plate thermostatic oscillator.
Anti-Camp Alohascreen Acceptor and Streptavidin Coated Donor Bead were purchased from Perkin Elmer Company according to response volume: 1* Immunoassay Buffer 549.32 μL and 3.70 μL anti-cAMP AlohaScreen Acceptor were collected under dark conditions. We took 1.98 μL Streptavidin coated Donor Bead, mixed well, added 15 μL mixture to each well after 1 h reaction, and reacted it in the dark for 1 h. After the reaction, we tested it with multilabel microplate detector.

On to `COc1ccc2c(c1)oc(=O)c1ccccc12` [Compound 1a, 3-Methoxy-6H-benzo[c]chromen-6-one], for which the IC50 against PDE2 turned out to be 28.8 ± 7.8 µM.

The molecule `CCOc1ccc2c(c1)oc(=O)c1ccccc12` [Compound 1b, Ethoxy-6H-benzo[c]chromen-6-one] gave a melting point of 115.2 to 117.7 °C. Further, inhibition against PDE2 was half-maximal at 25.4 ± 5.13 µM (IC50).

Consider `CC(C)Oc1ccc2c(c1)oc(=O)c1ccccc12` [Compound 1c, 3-Isopropoxy-6H-benzo[c]chromen-6-one], for which the melting point lay within 58.7 to 59.1 °C. For the same molecule, half-maximal inhibition against PDE2 (IC50) was put at 25.8 ± 5.45 µM.

For `CCCOc1ccc2c(c1)oc(=O)c1ccccc12` [Compound 1d, 3-Propoxy-6H-benzo[c]chromen-6-one], the IC50 at PDE2 was > 50 µM.

In the case of `CCC(C)Oc1ccc2c(c1)oc(=O)c1ccccc12` (stereo not shown) [Compound 1e, 3-(Sec-butoxy)-6H-benzo[c]chromen-6-one], the melting point was in the range of 73.2 to 75.8 °C. For the same molecule, inhibition at PDE2 was half-maximal at 37.7 ± 4.9 µM (IC50).

Regarding `CCCCCOc1ccc2c(c1)oc(=O)c1ccccc12` [Compound 1g, 3-(pentyloxy)-6H-benzo[c]chromen-6-one], the melting point fell in the range of 69.4 to 71.8 °C. For the same molecule, on PDE2, the IC50 is > 50 µM.

As to `CCOC(=O)COc1ccc2c(c1)oc(=O)c1ccccc12` [Compound 1h, ethyl 2-((6-oxo-6H-benzo[c]chromen-3-yl)oxy)acetate], the melting point is 124.7 to 125.8 °C. On PDE2, the “PDE2 inhibitory activity (result in words)” value (“PDE2 inhibitory activity” for short) is reported as “good PDE2 inhibitory activity” and it took 18.7 ± 2.72 µM to reach half-maximal inhibition (IC50).

Consider `O=c1oc2cc(OCC3CCOCC3)ccc2c2ccccc12` [Compound 1i, 3-((tetrahydro-2H-pyran-4-yl)methoxy)-6H-benzo[c]chromen-6-one], for which the melting point lay in the range of 133 to 134.8 °C. Further, at PDE2, the “PDE2 inhibitory activity” value is given as “good PDE2 inhibitory activity” and the IC50 was 17.9 ± 1.87 µM.

The molecule `O=c1oc2cc(OCCn3cccn3)ccc2c2ccccc12` [Compound 1k, 3-(2-(1H-pyrazol-1-yl)ethoxy)-6H-benzo[c]chromen-6-one] had a melting point of 164.3 to 166.6 °C. In addition, at PDE2, the IC50 was > 50 µM.

In turn, `O=c1oc2cc(Oc3ncccn3)ccc2c2ccccc12` [Compound 1l, 3-(Pyrimidin-2-yloxy)-6H-benzo[c]chromen-6-one] returned a melting point of 174 to 176.6 °C. On PDE2, the “PDE2 inhibitory activity” value is given as “good PDE2 inhibitory activity” and the IC50 came to 19.3 ± 2.38 µM.

Consider `O=c1oc2cc(OCCO)ccc2c2ccccc12` [Compound 1m, 3-(2-Hydroxyethoxy)-6H-benzo[c]chromen-6-one], for which the melting point lay in the range of 125.7 to 126.4 °C. At PDE2, the IC50 is > 50 µM.

Consider `O=c1oc2cc(OCC3CCCO3)ccc2c2ccccc12` (stereo not shown) [Compound 1n, 3-((Tetrahydrofuran-2-yl)methoxy)-6H-benzo[c]chromen-6-one], for which the melting point lay in the range of 82.8 to 84.1 °C. In addition, the IC50 against PDE2 is 27.5 ± 1.49 µM.

As to `O=c1oc2cc(OCC3OCCO3)ccc2c2ccccc12` [Compound 1o, 3-((1,3-Dioxolan-2-yl)methoxy)-6H-benzo[c]chromen-6-one], the melting point is 135.6 to 137.8 °C. At PDE2, the IC50 was > 50 µM.

For `COc1cc(COc2ccc3c(c2)oc(=O)c2ccccc23)cc(OC)c1` [Compound 1p, 3-((3,5-Dimethoxybenzyl)oxy)-6H-benzo[c]chromen-6-one], the melting point is 133.8 to 135 °C. On PDE2, the IC50 is > 50 µM.

Molecule `Cc1cc(COc2ccc3c(c2)oc(=O)c2ccccc23)n(C)n1` [Compound 1q, 3-((1,3-Dimethyl-1H-pyrazol-5-yl)methoxy)-6H-benzo[c]chromen-6-one] displayed a melting point of 165.1 to 167.6 °C. For the same molecule, the IC50 on PDE2 was > 50 µM.

On PDE2, `O=c1oc2cc(OCc3cccnc3)ccc2c2ccccc12` [Compound 1r, 3-(Pyridin-3-ylmethoxy)-6H-benzo[c]chromen-6-one] gave an IC50 of 27.6 ± 2.14 µM.

In turn, `O=c1oc2cc(OCC3CCCC3)ccc2c2ccccc12` [Compound 1s, 3-(Cyclopentylmethoxy)-6H-benzo[c]chromen-6-one] displayed a melting point of 90.6 to 91.2 °C. For the same molecule, at PDE2, the “PDE2 inhibitory activity” value is recorded as “good PDE2 inhibitory activity” and the IC50 was found to be 8.14 ± 0.54 µM.

Molecule `O=c1oc2cc(OCc3ccc(CO)cc3)ccc2c2ccccc12` [Compound 1t, 3-((4-[Hydroxymethyl]benzyl)oxy)-6H-benzo[c]chromen-6-one] had a melting point of 147 to 149.2 °C. Besides, at PDE2, the IC50 is > 50 µM.

`O=c1oc2cc(OCCN3CCOCC3)ccc2c2ccccc12` [Compound 1u, 3-(2-Morpholinoethoxy)-6H-benzo[c]chromen-6-one] registered a melting point of 100.8 to 102.8 °C. Also, the IC50 against PDE2 was > 50 µM.

Turning to `COc1ccc2c(c1)oc(=O)c1cc(OC)ccc12` [Compound 2a, 3,8-Dimethoxy-6H-benzo[c]chromen-6-one], at PDE2, the IC50 is > 50 µM.

On to `CCOc1ccc2c(c1)oc(=O)c1cc(OC)ccc12` [Compound 2b, 3-Ethoxy-8-methoxy-6H-benzo[c]chromen-6-one], for which the melting point lay in the range of 141.1 to 143.8 °C. Moreover, at PDE2, the IC50 was > 50 µM.

In turn, `CCCOc1ccc2c(c1)oc(=O)c1cc(OC)ccc12` [Compound 2c, 8-Methoxy-3-propoxy-6H-benzo[c]chromen-6-one] displayed a melting point of 109.3 to 111.6 °C. The IC50 against PDE2 is > 50 µM.

As to `CCC(C)Oc1ccc2c(c1)oc(=O)c1cc(OC)ccc12` (stereo not shown) [Compound 2d, 3-(Sec-butoxy)-8-methoxy-6H-benzo[c]chromen-6-one], the melting point fell in the range of 64.5 to 66.7 °C. On PDE2, the IC50 is > 50 µM.

For `CCCCOc1ccc2c(c1)oc(=O)c1cc(OC)ccc12` [Compound 2e, 3-Butoxy-8-methoxy-6H-benzo[c]chromen-6-one], the melting point lay within 102.5 to 104.4 °C. At PDE2, the “PDE2 inhibitory activity” value was “good PDE2 inhibitory activity” and the IC50 was 17.8 ± 4.07 µM.

`CCCCCOc1ccc2c(c1)oc(=O)c1cc(OC)ccc12` [Compound 2f, 8-Methoxy-3-(pentyloxy)-6H-benzo[c]chromen-6-one] came in with a melting point of 73.1 to 75.5 °C. Besides, the IC50 on PDE2 was > 50 µM.

For `COc1ccc2c(c1)c(=O)oc1cc(OC(C)C)ccc12` [Compound 2g, 3-Isopropoxy-8-methoxy-6H-benzo[c]chromen-6-one], the melting point lay within 88.3 to 90.7 °C. Further, at PDE2, half-maximal inhibition (IC50) required 30.3 ± 7.38 µM.

`COc1ccc2c(c1)c(=O)oc1cc(OCCO)ccc12` [Compound 2h, 3-(2-Hydroxyethoxy)-8-methoxy-6H-benzo[c]chromen-6-one] had a melting point of 166.8 to 168 °C. In addition, on PDE2, the IC50 was > 50 µM.

`CCOC(=O)COc1ccc2c(c1)oc(=O)c1cc(OC)ccc12` [Compound 2j, Ethyl 2-((8-methoxy-6-oxo-6H-benzo[c]chromen-3-yl)oxy)acetate]: the IC50 against PDE2 is > 50 µM.

Take `COc1ccc2c(c1)c(=O)oc1cc(OCC3CCCC3)ccc12` [Compound 2k, 3-(Cyclopentylmethoxy)-8-methoxy-6H-benzo[c]chromen-6-one]: the IC50 at PDE2 is > 50 µM.

Consider `COc1ccc2c(c1)c(=O)oc1cc(Oc3ncccn3)ccc12` [Compound 2v, 8-Methoxy-3-(pyrimidin-2-yloxy)-6H-benzo[c]chromen-6-one], for which the melting point fell in the range of 212.3 to 214 °C.
